{"source": "patent US10905761B2", "about": "“Use of a lipopeptide or lipoprotein as an adjuvant in therapeutic or prophylactic vaccinations” (HELMHOLTZ-ZENTRUM FUER INFEKTIONSFORSCHUNG GMBH, priority 2002, dated 2021)", "tested_on": "BALB/c (H-2d) mice", "test": "Oral immunization with β-galactosidase and MALP-2 as mucosal adjuvant (serum antibody ELISA, Example 9)", "format": "in vivo", "details": "100 μg β-gal with 2 μg MALP-2, days 1, 14, 21, 31, serum day 45", "description": "FIG. 12: Humoral responses stimulated after vaccination with MALP-2 as adjuvant in a dose 2 μg per animal per immunization. The mice were immunized orally either with β-galactosidase alone (100 μg/dose) or with β-galactosidase mixed with MALP-2 (2 μg/dose) on […]. On day 45 after the first immunization, serum samples were obtained, and the titers of the β-galactosidase-specific antibodies were determined with an ELISA.\nSix- to eight-week old female BALB/c (H-2d) mice were purchased from Harlan Winkelmann GmbH (Borchen, Germany) and treated in accordance with local guidelines and directives of the European Community. Groups each of 5 mice were immunized on days 1, 14, 21 and 31 with 100 μg of β-gal (Boehringer, Mannheim, Germany) either alone or with 2 μg of synthetic MALP-2 as adjuvant by the oral route (dose 25 μl). On day 45, serum samples were taken and stored at −20° C. until β-gal-specific antibodies were determined. 96-well Nunc-Immuno MaxiSorp® assay plates (Nunc, Roskilde, Denmark) were coated with 100 μl of β-gal at 5 μg/ml in 0.05 M carbonate buffer (pH 8.2) per well. […] The final value titers have been expressed as the reciprocal logarithmic log2 values of the last dilution which resulted, after incubation for 30 minutes, in an optical density at 405 nm of 0.1 units above the values for the negative controls.", "note": "No end group written: not given here.", "data": [{"substance": "S-[2,3-bispalmitoyloxypropyl]cysteinyl-GNNDESNISFKEK ({S‑(2,3-bispalmitoyloxypropyl)Cys}-GNNDESNISFKEK) [MALP-2]", "values": [{"measurement": "serum immune responses to β-gal after oral immunization", "value": "Immune responses to β-gal were observed"}]}]}
